Measured values: the supplement of paper PMC10627819

Assays:
Conditions in all cases: main component drawn
[1] = system: B. subtilis 168; test: fitness (endpoint OD595 vs no drug) (fraction); higher = more growth
Procedure, shortened: (§1)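 Growth medium was TSB, LB Lennox or CY, and plates were kept at 37 °C. Inoculation was at OD595 0.01 in 384-well plates, at 30 µl per well or 55 µl for S. pneumoniae. OD595 was monitored every 30 min for 14 h and background-subtracted using the first reading. Fitness is the optical density on entering stationary phase divided by the robust mean of no-drug controls, with values capped at 1.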

[2] = system: S. aureus Newman; test: as above
Procedure, shortened: as §1

[3] = system: B. subtilis 168; test: Bliss interaction score (quartile over a dose matrix) (fitness difference); higher = more antagonism (negative = synergy)
Procedure, shortened: (§2)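 Combination data were used to infer fitness under each single drug. Fitness is the OD595 at entry into stationary phase divided by the robust mean of the plate's no-drug wells, with a cap of 1. The Bliss score is the observed minus the expected product fitness, summarised by quartiles over technical, biological and donor/recipient replicates.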

[4] = system: S. aureus DSM 20231; test: as above
Procedure, shortened: as §2

[5] = system: S. aureus Newman; test: as above
Procedure, shortened: as §2

[6] = system: S. pneumoniae D39V; test: as above
Procedure, shortened: as §2
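Throughout, for Bliss interaction score (quartile over a dose matrix): first quartile when negative (synergy) and third quartile when positive (antagonism).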

CC[C@H](C)[C@H](N)C1=N[C@H](C(=O)N[C@@H](CC(C)C)C(=O)N[C@H](CCC(=O)O)C(=O)N[C@H](C(=O)N[C@H]2CCCCNC(=O)[C@H](CC(N)=O)NC(=O)[C@@H](CC(=O)O)NC(=O)[C@H](Cc3cnc[nH]3)NC(=O)[C@@H](Cc3ccccc3)NC(=O)[C@H]([C@@H](C)CC)NC(=O)[C@@H](CCCN)NC2=O)[C@@H](C)CC)CS1 [Bacitracin] + Cc1onc(-c2ccccc2)c1C(=O)N[C@@H]1C(=O)N2[C@@H]1SC(C)(C)[C@@H]2C(=O)O [Oxacillin]
fitness
Conditions	first compound 18.75 µg/mL	first compound 37.5 µg/mL	first compound 75 µg/mL
[1], partner 0.002 µg/mL	–	0.958	0.959
[1], partner 0.004 µg/mL	–	0.955	0.913
[1], partner 0.008 µg/mL	–	0.924	0.835
[2], partner 0.0156 µg/mL	0.534	0.0937	0.0408
[2], partner 0.0312 µg/mL	–	0.0243	0.0443
[2], partner 0.0625 µg/mL	0.0815	0.0177	0.0488

fitness, [1], one replicate
Conditions	partner 0.0078 µg/mL	partner 0.0155 µg/mL	partner 0.031 µg/mL	partner 0.075 µg/mL	partner 0.15 µg/mL	partner 0.3 µg/mL
first compound 37.5 µg/mL	0.79	0.782	0.742	0.58	0.0238	0.0295
first compound 75 µg/mL	0.778	0.76	0.701	0.496	0.0193	0.0177
first compound 150 µg/mL	0.447	0.36	0.316	0.242	0.0097	0.0106

Conditions	Bliss interaction score
[3]	-0.0456
[4]	0.0803
[5]	-0.118
[6]	-0.107

CC[C@H](C)[C@H](N)C1=N[C@H](C(=O)N[C@@H](CC(C)C)C(=O)N[C@H](CCC(=O)O)C(=O)N[C@H](C(=O)N[C@H]2CCCCNC(=O)[C@H](CC(N)=O)NC(=O)[C@@H](CC(=O)O)NC(=O)[C@H](Cc3cnc[nH]3)NC(=O)[C@@H](Cc3ccccc3)NC(=O)[C@H]([C@@H](C)CC)NC(=O)[C@@H](CCCN)NC2=O)[C@@H](C)CC)CS1 [Bacitracin] + O=C(O)c1cn(C2CC2)c2cc(N3CCNCC3)c(F)cc2c1=O [Ciprofloxacin]
fitness
Conditions	first compound 18.75 µg/mL	first compound 37.5 µg/mL	first compound 75 µg/mL	first compound 150 µg/mL
[1], partner 0.0098 µg/mL	–	0.88	0.889	0.897
[1], partner 0.0195 µg/mL	–	0.718	0.659	0.559
[1], partner 0.039 µg/mL	–	0.201	0.0773	0.0355
[2], partner 0.0375 µg/mL	0.524	0.199	0.0079	–
[2], partner 0.075 µg/mL	–	0.0916	0.013	–
[2], partner 0.15 µg/mL	0.0536	0.0155	0.0083	–

Conditions	Bliss interaction score
[3]	-0.0665
[4]	-0.0438
[5]	-0.0418
[6]	-0.13

CC[C@H](C)[C@H](N)C1=N[C@H](C(=O)N[C@@H](CC(C)C)C(=O)N[C@H](CCC(=O)O)C(=O)N[C@H](C(=O)N[C@H]2CCCCNC(=O)[C@H](CC(N)=O)NC(=O)[C@@H](CC(=O)O)NC(=O)[C@H](Cc3cnc[nH]3)NC(=O)[C@@H](Cc3ccccc3)NC(=O)[C@H]([C@@H](C)CC)NC(=O)[C@@H](CCCN)NC2=O)[C@@H](C)CC)CS1 [Bacitracin] + O=C(O[C@@H]1Cc2c(O)cc(O)cc2O[C@@H]1c1cc(O)c(O)c(O)c1)c1cc(O)c(O)c(O)c1 [EGCG]
fitness
Conditions	first compound 18.75 µg/mL	first compound 37.5 µg/mL	first compound 75 µg/mL	first compound 150 µg/mL
[1], partner 6.25 µg/mL	–	0.876	0.885	0.827
[1], partner 12.5 µg/mL	–	–	–	0.562
[2], partner 12.5 µg/mL	0.73	0.43	0.0108	–
[2], partner 25 µg/mL	0.632	0.283	0.0073	–
[2], partner 50 µg/mL	0.444	0.192	0.0184	–

Conditions	Bliss interaction score
[3]	0.0767
[4]	-0.0223
[5]	0.124
[6]	-0.0707
